Measured values published in the supplement of paper PMC3974653.
Counter-ions that a name gives are not always drawn.

What follows are molecules tested on MTT (mouse pheochromocytoma) (assay: IC50 of cell viability (ATP content)). Settings: (24 or 48 h).
In short: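 MTT mouse pheochromocytoma cells were seeded into white 1536-well plates at 5 µl per well from a 200,000 cells/ml suspension in DMEM with 5% FBS and 1% horse serum, then cultured overnight at 37°C, 5% CO2. A pintool added 23 nl of library compound in DMSO at 8 concentrations (final 0.5 nM to 46 µM) for 24 or 48 hrs, and CellTiter-Glo ATP luminescence was read after 15 minutes. Signals were scaled so that positive-control wells equalled 100% and DMSO wells 0%. IC50 values were derived by fitting a four-parameter logistic curve.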

Row | Compound | IC50 of cell viability
1 | O=C(O)c1cccnc1 [NIACIN] | > 46 µM
2 | CCN(CC)CCOC(=O)c1cccnc1.O.O=C(O)CC(O)(CC(=O)O)C(=O)O [NICAMETATE CITRATE] | > 46 µM
3 | COC(=O)\C1=C(/C)N\C(=C(/C1C2=CC=CC(=C2)[N+]([O-])=O)C(=O)OCCN(C)CC3=CC=CC=C3)C (configuration not stated) [NICARDIPINE] | > 46 µM
4 | CO[C@]12C[C@@H](COC(=O)c3cncc(Br)c3)CN(C)[C@@H]1Cc1cn(C)c3cccc2c13 [NICERGOLINE] | > 46 µM
5 | O=C(OC[C@@H]1O[C@@](O)(COC(=O)c2cccnc2)[C@H](OC(=O)c2cccnc2)[C@H]1OC(=O)c1cccnc1)c1cccnc1 [NICOFURANOSUM] | > 46 µM
6 | O=C(NCCc1c[nH]c2ccccc12)c1cccnc1 [NICOTREDOLUM] | > 46 µM
7 | COC(=O)\C1=C(/C)N\C(=C(/C1C2=C(C=CC=C2)[N+]([O-])=O)C(=O)OC)C [NIFEDIPINE] | > 46 µM
8 | O=C(O)c1cccnc1Nc1cccc(C(F)(F)F)c1 [NIFLUMIC ACID] | > 46 µM
9 | O=NCc1ccc([N+](=O)[O-])o1 [NIFUROXIME] | > 46 µM
10 | COC(=O)C1=C(C#N)NC(C)=C(C(=O)OC(C)C)C1c1cccc([N+](=O)[O-])c1 (configuration not stated) [NILVADIPINE] | > 46 µM
11 | COCCOC(=O)\C1=C(/C)N\C(=C(/C1C2=CC=CC(=C2)[N+]([O-])=O)C(=O)OC(C)C)C (configuration not stated) [NIMODIPINE] | > 46 µM
12 | Cc1ncc(CNC(=O)N(CCCl)N=O)c(N)n1 [NIMUSTINE] | > 46 µM
13 | CNCCC(Oc1ccccc1OC)c1ccccc1 (configuration not stated) [NISOXETINE] | > 46 µM
14 | O=[N+]([O-])c1ccc([As](=O)(O)O)cc1 [NITARSONE] | > 46 µM
15 | CCN(Cc1ccc(Cl)nc1)/C(=C/[N+](=O)[O-])NC [NITENPYRAM] | > 46 µM
16 | CCOC(=O)\C1=C(/C)N\C(=C(/C1C2=CC=CC(=C2)[N+]([O-])=O)C(=O)OC)C (configuration not stated) [NITRENDIPINE] | > 46 µM
17 | NC(=O)c1cc([N+](=O)[O-])cc([N+](=O)[O-])c1 [NITROMIDE] | > 46 µM
18 | Cc1ccc2nc(N)nc(O)c2c1Sc1ccncc1 [NOLATREXED] | > 46 µM
19 | CN1Cc2c(N)cccc2C(c2ccccc2)C1.O=C(O)/C=C\C(=O)O (configuration not stated) [NOMIFENSINE MALEATE] | > 46 µM
20 | C#C[C@]1(O)CC[C@H]2[C@@H]3CCC4=C/C(=N\O)CC[C@H]4[C@@H]3CC[C@]21CC [NORELGESTROMIN] | > 46 µM
21 | C[C@]12CCC3C(CCC/4=C/C(=O)CCC34)C1CC[C@@]2(O)C#C (some centres not stated) [NORETHINDRONE] | > 46 µM
22 | CC(=O)O[C@@]1(CC[C@H]2[C@@H]3CCC/4=C/C(=O)CC[C@@H]4[C@H]3CC[C@]12C)C#C [NORETHISTERONE ACETATE] | > 46 µM
23 | O=C1NC(=O)C2C3C=CC(C3)C12 (configuration not stated) [NOREXIMIDUM] | > 46 µM
24 | NCC(O)c1cccc(O)c1 (configuration not stated) [NORFENEFRINE HYDROCHLORIDE] | > 46 µM

Row | Compound | IC50 of cell viability
25 | C#C[C@]1(OC(C)=O)CC[C@H]2[C@@H]3CCC4=C/C(=N/O)CC[C@@H]4[C@H]3CC[C@@]21CC [NORGESTIMATE] | > 46 µM
26 | O=C1N=C2SCCN2C(=O)C1Cc1ccc(Cl)cc1 (configuration not stated) [NUCLOMEDONUM] | > 46 µM
27 | CC(CCc1ccccc1)NC(C)C(O)c1ccc(O)cc1 (configuration not stated) [NYLIDRIN] | > 46 µM
28 | CC(=O)NC(CCC(N)=O)C(=O)O [Na-Acetyl-L-glutamine] | > 46 µM
29 | COc1ccc2cc(CCC(C)=O)ccc2c1 [Nabumetone] | > 46 µM
30 | NC(=O)c1ccc[n+]([C@@H]2O[C@@H](CO[P@@](=O)([O-])O[P@@](=O)(O)OC[C@@H]3O[C@@H](n4cnc5c(N)ncnc54)[C@@H](O)[C@H]3O)[C@H](O)[C@@H]2O)c1 [Nadide] | > 46 µM
31 | CC1CCc2c(N3CCC(O)CC3)c(F)cc3c(=O)c(C(=O)O)cn1c23 (configuration not stated) [Nadifloxacin] | > 46 µM
32 | CC(C)(C)NC[C@H](O)COc1cccc2c1C[C@@H](O)[C@H](O)C2 [Nadolol] | > 46 µM
33 | O.[Na+].CCOC1=CC=C2C=CC=CC2=C1C(=O)N[C@H]3[C@@H]4SC(C)(C)[C@@H]([N@@]4C3=O)C([O-])=O [Nafcillin sodium salt monohydrate] | > 46 µM
34 | CC(C)(Oc1ccc(C2CCCc3ccccc32)cc1)C(=O)O (configuration not stated) [Nafenopin] | > 46 µM
35 | CCN(CC)CCOC(=O)[C@@H](Cc1cccc2ccccc12)C[C@H]1CCCO1 [Nafronyl oxalate] | > 46 µM
36 | CN(C/C=C\c1ccccc1)Cc1cccc2ccccc12 [Naftifine hydrochloride] | > 46 µM
37 | CCN1\C=C(\C(O)=O)C(=O)C2=CC=C(C)N=C12 [Nalidixic acid] | > 46 µM
38 | CCCCCCCCCC(=O)O[C@H]1CC[C@H]2[C@@H]3CCC4=CC(=O)CC[C@@H]4[C@H]3CC[C@]12C [Nandrolone decanoate] | > 46 µM
39 | c1ccc2ccccc2c1 [Naphthalene] | > 46 µM
40 | CN[S+](=O)([O-])CCc1ccc2[nH]cc(C3CCN(C)CC3)c2c1 [Naratriptan Hydrochloride] | > 46 µM
41 | C[C@@H]1O[C@@H](O[C@@H]2\C=C/C=C\C=C/C=C\C[C@H](C)OC(=O)/C=C\[C@H]3O[C@@H]3C[C@H](O)C[C@]3(O)C[C@@H](O)[C@@H](C(=O)O)[C@H](C2)O3)[C@H](O)[C@H](N)[C@@H]1O [Natamycin] | > 46 µM
42 | CCCc1c2oc(C(=O)O)cc(=O)c2cc2c(=O)cc(C(=O)O)n(CC)c12 [Nedocromil] | > 46 µM
43 | CCC/1=N/N(CCCN2CCN(CC2)C3=CC(=CC=C3)Cl)C(=O)N1CCOC4=CC=CC=C4 [Nefazodone hydrochloride] | > 46 µM
44 | C/C=C1/NN(CCCN2CCN(c3cccc(Cl)c3)CC2)C(=O)N1CCOc1ccccc1 [Nefazodone hydrochloride] | > 46 µM
45 | Cc1cccc(C)c1NC(=O)CN1CCCC1=O [Nefiracetam] | > 46 µM
46 | CN1CCO[C@H](c2ccccc2)c2ccccc2C1 [Nefopam hydrochloride] | > 46 µM
47 | Cc1c(O)cccc1C(=O)N[C@@H](CSc1ccccc1)[C@H](O)CN1C[C@H]2CCCC[C@H]2C[C@H]1C(=O)NC(C)(C)C [Nelfinavir Mesylate] | > 46 µM
48 | CNc1cc(OC)c(C(=O)NC2CCN(Cc3ccccc3)C2C)cc1Cl (configuration not stated) [Nemonapride] | > 46 µM

Row | Compound | IC50 of cell viability
49 | CCOC(=O)c1cc(-c2ccccc2)nc2ccc(C)cc12 [Neocinchophen] | > 46 µM
50 | NC[C@@H]1O[C@@H](O[C@H]2[C@@H](O)[C@H](O[C@@H]3[C@@H](O)[C@H](N)C[C@H](N)[C@H]3O[C@H]3O[C@H](CN)[C@@H](O)[C@H](O)[C@H]3N)O[C@@H]2CO)[C@H](N)[C@@H](O)[C@@H]1O [Neomycin Trisulfate Hydrate] | > 46 µM
51 | NC(=O)Cc1cccc(C(=O)c2ccccc2)c1N [Nepafenac] | > 46 µM
52 | C1CN\C(N1)=C/C2=CC=CC3=C2C=CC=C3 [Nephazoline] | > 46 µM
53 | CCN[C@@H]1C[C@H](N)[C@H](O[C@@H]2O\C(=C/C[C@H]2N)CN)[C@@H](O)[C@@H]1O[C@@H]3OC[C@@](C)(O)[C@@H](NC)[C@H]3O [Netilmicin sulfate] | > 46 µM
54 | Cc1ccnc2c1NC(=O)c1cccnc1N2C1CC1 [Nevirapine] | > 46 µM
55 | NC(=O)c1cccnc1 [Niacinamide] | > 46 µM
56 | O=C(CCNNC(=O)c1ccncc1)NCc1ccccc1 [Nialamide] | > 46 µM
57 | CCCCC(CC)CCC(CC(C)C)OS(=O)(=O)[O-] (configuration not stated) [NiaproofÆ 4] | > 46 µM
58 | CC(CNC(=O)c1cccnc1)NC(=O)c1cccnc1 (configuration not stated) [Nicaraven] | > 46 µM
59 | O=C(OCC(COC(=O)c1cccnc1)(COC(=O)c1cccnc1)COC(=O)c1cccnc1)c1cccnc1 [Niceritrol] | > 46 µM
60 | O=C(OCC1(COC(=O)c2cccnc2)CCCC(COC(=O)c2cccnc2)(COC(=O)c2cccnc2)C1O)c1cccnc1 [Nicomolol] | > 46 µM
61 | O=C(NCCO[N+](=O)[O-])c1cccnc1 [Nicorandil] | > 46 µM
62 | NC(=S)N/N=C/c1cccnc1 [Nicothiazone] | > 46 µM
63 | Cn1c(NCCN(CCO)CCCc2ccc([N+](=O)[O-])cc2)cc(=O)n(C)c1=O [Nifekalant] | > 46 µM
64 | CC(C)NCC(O)c1ccc([N+](=O)[O-])cc1 (configuration not stated) [Nifenalol] | > 46 µM
65 | CN1N(C2=CC=CC=C2)C(=O)C(=C1/C)/NC(=O)C3=CN=CC=C3 [Nifenazone] | > 46 µM
66 | O=C(N/N=C\c1ccc([N+](=O)[O-])o1)c1ccc(O)cc1 [Nifuroxazide] | > 46 µM
67 | O=C(N/N=C/c1ccc([N+](=O)[O-])o1)c1cc([N+](=O)[O-])cc([N+](=O)[O-])c1O [Nifursol] | > 46 µM
68 | C[C@H]1C[S+](=O)([O-])CCN1/N=C\c1ccc([N+](=O)[O-])o1 [Nifurtimox] | > 46 µM
69 | CCN(CC)C(=O)c1cccnc1 [Nikethamide] | > 46 µM
70 | CC1(C)NC(=O)N(c2ccc([N+](=O)[O-])c(C(F)(F)F)c2)C1=O [Nilutamide] | > 46 µM
71 | C[S+](=O)([O-])Nc1ccc([N+](=O)[O-])cc1Oc1ccccc1 [Nimesulide] | > 46 µM
72 | O=C1NCCN1c1ncc([N+](=O)[O-])s1 [Niridazole] | > 46 µM
